Tested on: monocrotaline-induced pulmonary hypertension
Test: Monocrotaline-induced pulmonary hypertension in rats (haemodynamics, right heart hypertrophy, bleeding)
Format: in vivo, rat
Details: for bleeding complications in treated animals: bleeding with fatal outcome or need to euthanize; for effect on haemodynamics in the right heart and pulmonary circulation and right heart hypertrophy (in words): comparison of Example 1, enoxaparin and warfarin
Excerpt: The monocrotaline-induced pulmonary hypertension in rats is a widely used animal model of pulmonary arterial hypertension. The pyrrolizidine alkaloid monocrotaline is metabolized after subcutaneous injection to toxic monocrotaline pyrrole in the liver and leads within a few days to endothelial damage and coagulation activation and thrombosis formation in the pulmonary circulation, followed by remodelling of the small pulmonary arteries (media hypertrophy, de-novo muscularization). A single subcutaneous injection is sufficient to induce pronounced pulmonary hypertension in rats within 4 weeks.
Male Sprague-Dawley rats are used for the model. On day 0, the animals receive a subcutaneous injection of monocrotaline 60 mg/kg. The treatment of the animals starts before the monocrotaline injection and extends over a period of at least 28 days. At the end of the study, the animals undergo haemodynamic investigations, and the arterial and central venous oxygen saturation is measured. The rats are initially anaesthetized with pentobarbital 60 mg/kg for the haemodynamic measurement. The animals are then tracheotomized and artificially ventilated (frequency: 60 breaths/min; inspiration to expiration ratio: 50:50; positive end-expiratory pressure: 1 cm H2O; tidal volume: 10 ml/kg body weight; FIO2: 0.5). The anaesthesia is maintained by isoflurane inhalation anaesthesia. The systemic blood pressure is measured in the left carotid artery by means of a Millar microtip catheter. A polyethylene catheter is advanced through the right jugular vein into the right ventricle for determining the right ventricular pressure. The cardiac output is measured by thermodilution. Following the haemodynamics, the heart is removed and the ratio of right to left ventricle including septum is determined.

O=C(NC[C@H]1CN(c2ccc(N3CCOCC3=O)cc2)C(=O)O1)c1ccc(Cl)s1 [Example 1, 5-chloro-N-({(5S)-2-oxo-3-[4-(3-oxomorpholin-4-yl)phenyl]-1,3-oxazolidin-5-yl}methyl)thiophene-2-carboxamide]
RVEDP (Table 1, 3-9 mg/kg/d): 4 mmHg | dP/dtmax (Table 1, 3-9 mg/kg/d): 2715 mmHg/s | RVPmax (Table 1, 3-9 mg/kg/d, at least 28 days treatment): 55 mmHg | CO (Table 1, 3-9 mg/kg/d, cardiac output): 117 mL/min | RV/(LV + S) (Table 1, 3-9 mg/kg/d, weight of right heart relative to left heart including septum): 0.41 | CO (Table 1, 10-30 mg/kg/d): 117 mL/min | RV/(LV + S) (Table 1, 10-30 mg/kg/d): 0.33 | RVEDP (Table 1, 10-30 mg/kg/d): 3 mmHg | RVPmax (Table 1, 10-30 mg/kg/d): 44 mmHg | dP/dtmax (Table 1, 10-30 mg/kg/d): 2244 mmHg/s | CO (Table 2, 10-30 mg/kg/d): 125 mL/min | RV/(LV + S) (Table 2, 10-30 mg/kg/d): 0.38 | RVEDP (Table 2, 10-30 mg/kg/d): 3 mmHg | RVPmax (Table 2, 10-30 mg/kg/d): 57 mmHg | dP/dtmax (Table 2, 10-30 mg/kg/d): 3300 mmHg/s | bleeding complications in treated animals: no bleedings | effect on haemodynamics in the right heart and pulmonary circulation and right heart hypertrophy (in words): better activity

CC(=O)CC(c1ccccc1)c1c(O)c2ccccc2oc1=O (stereo not shown) [Warfarin, warfarin, reference compound]
CO (Table 2, 0.1-0.2 mg/kg/d): 100 mL/min | RV/(LV + S) (Table 2, 0.1-0.2 mg/kg/d): 0.46 | RVEDP (Table 2, 0.1-0.2 mg/kg/d): 4 mmHg | RVPmax (Table 2, 0.1-0.2 mg/kg/d): 64 mmHg | dP/dtmax (Table 2, 0.1-0.2 mg/kg/d): 4535 mmHg/s | bleeding complications in treated animals: half of the animals | effect on haemodynamics in the right heart and pulmonary circulation and right heart hypertrophy (in words): significantly smaller effect

enoxaparin [reference compound]
CO (Table 2, 20 mg/kg/d): 77 mL/min | RV/(LV + S) (Table 2, 20 mg/kg/d): 0.56 | RVEDP (Table 2, 20 mg/kg/d): 6 mmHg | RVPmax (Table 2, 20 mg/kg/d): 85 mmHg | dP/dtmax (Table 2, 20 mg/kg/d): 4644 mmHg/s | bleeding complications in treated animals: half of the animals | effect on haemodynamics in the right heart and pulmonary circulation and right heart hypertrophy (in words): no effect
